Results: US6964983B2, “Compounds that modulate PPAR activity and methods for their preparation” (Warner-Lambert Company, LLC, priority 2002, dated 2005)

Legend:
[1] = biological target: T1, hPPARβ (Homo sapiens, UniProt Q03181); experiment: Transient transfection assay in HepG2 cells, Gal4-hPPARβ chimeric receptor, luciferase reporter; assay type: cell-based; details: Hep G2-hBeta EC50, 24 hours incubation; read-out: EC50β nM (Group)
T1 sequence (Q03181 171-441 limits assumed): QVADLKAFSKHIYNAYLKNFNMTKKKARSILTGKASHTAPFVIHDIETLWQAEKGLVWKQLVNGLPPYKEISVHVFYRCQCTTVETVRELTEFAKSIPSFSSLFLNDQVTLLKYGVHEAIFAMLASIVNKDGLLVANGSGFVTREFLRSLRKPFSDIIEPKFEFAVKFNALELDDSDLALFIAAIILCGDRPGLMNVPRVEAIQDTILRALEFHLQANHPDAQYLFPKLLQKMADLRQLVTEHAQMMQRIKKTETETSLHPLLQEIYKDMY
Method: (§1) 1. Test A. Transient Transfections Assay using the HepG2 Hepatoma Cell Line.
(§2) HepG2 cells were transiently transfected with an expression plasmids encoding hPPARα, hPPARβ or mPPARγ chimeric receptors and a reporter containing the yeast upstream activating sequence (UAS) upstream of the viral E1B promoter controlling a luciferase reporter gene. In addition, the plasmid pRSVβ-gal was used to control for transfection efficiency. HepG2 cells were grown in DMEM supplemented with 10% FBS and 1 μM non-essential amino acid. On the first day, cells were split into 100 mm dishes at 2.5×10^6/dish and incubated overnight at 37° C./5% CO2. On the second day the cells were transiently transfected with plasmid DNA encoding a chimeric receptor, the luciferase reporter gene; and β-gal. For each 100 mm dish, 15 μg of lucifease reporter (PG5E1b) DNA, 15 μg of Gal4-PPAR chimeric receptor DNA, and 1.5 μg of β-gal plasmid DNA were mixed with 1.4 ml of opti-MEM in the tube. 28 μl of LipoFectamine-2000 reagent was added to 1.4 ml of opti-MEM in the tube, and incubate for 5 min at RT. The diluted Lipofectamine-2000 reagent was combined with the DNA mixture, and incubate for 20 min at RT. After fresh medium was added to each 100 mm dish of cells, 2.8 ml of Lipofectamine2000-DNA mixture was added dropwise to the 100 mm dish containing 14 ml of medium, and incubate 37° C. overnight. On day three cells were trypsinized off the 100 mm dishes and re-plated on 96 well plates. Cells were plated at 2.5×10^4 cells per well in 150 μl of media and 50 μl of compound diluted by media was added. The test compound added were in the range from 50 μM to 50 pM. After addition of compounds, the plates were incubated at 37° C. for 24 hours. Subsequently cells were washed with once with 100 μl of PBS, lysed, and processed for measuring luciferase and β-gal activity using Dual-Light luciferase kit from Tropix ®, according to the manufacturer's recommendations, on an EG&G Bethold MicroLumat LB96P luminometer. EC50 values were obtained using the GraphPad Prism™ program.

[2] = biological target: T2, hPPARα (Homo sapiens, UniProt Q07869); experiment: Transient transfection assay in HepG2 cells, Gal4-hPPARα chimeric receptor, luciferase reporter; assay type: cell-based; details: Hep G2-hAlpha EC50, 24 hours incubation; read-out: EC50α nM (Group)
T2 sequence (Q07869 200-468 limits assumed): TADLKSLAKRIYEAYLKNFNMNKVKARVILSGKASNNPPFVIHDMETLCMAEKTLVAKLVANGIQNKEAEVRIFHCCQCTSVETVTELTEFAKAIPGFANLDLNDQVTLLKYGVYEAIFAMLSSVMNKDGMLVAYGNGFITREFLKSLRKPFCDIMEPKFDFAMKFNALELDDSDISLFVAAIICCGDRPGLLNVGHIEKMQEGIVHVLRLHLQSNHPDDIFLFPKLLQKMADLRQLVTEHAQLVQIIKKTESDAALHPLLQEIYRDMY
Method: as §1, §2

Compound	melting point	EC50 [1]	EC50 [2]
COc1cc(OCC(=O)O)c(C)cc1SCc1ccc(-c2ccccc2)cc1 [Example 1, [4-(Biphenyl-4-ylmethylsulfanyl)-5-methoxy-2-methyl-phenoxy]-acetic acid]	60 to 62 °C	< 300 nM	< 300 nM
COc1cc(OCC(=O)O)c(C)cc1SCc1ccc(-c2cccc(C(F)(F)F)c2)cc1 [Example 9, [5-Methoxy-2-methyl-4-(3′-trifluoromethyl-biphenyl-4-ylmethylsulfanyl)-phenoxy]-acetic acid]	138 to 139 °C	< 300 nM	< 300 nM
COc1cc(OCC(=O)O)c(C)cc1SCc1ccc(OCc2ccc(C(F)(F)F)cc2)cc1 [Example 14, {5-Methoxy-2-methyl-4-[4-(4-trifluoromethyl-benzyloxy)-benzylsulfanyl]-phenoxy}-acetic acid]	145 °C	–	< 300 nM
COc1cc(OCC(=O)O)c(C)cc1SCc1cccc(-c2cccc(OC(F)(F)F)c2)c1 [Example 16, [5-Methoxy-2-methyl-4-(3′-trifluoromethoxy-biphenyl-3-ylmethylsulfanyl)-phenoxy]-acetic acid]	92 to 94 °C	< 300 nM	< 300 nM
COc1cc(OCC(=O)O)c(C)cc1SCc1ccc(-c2ccc(C(F)(F)F)cn2)cc1 [Example 18, {5-Methoxy-2-methyl-4-[4-(5-trifluoromethyl-pyridin-2-yl)-benzylsulfanyl]-phenoxy}-acetic acid]	225 °C (dec.)	< 300 nM	> 5000 nM
COc1cc(OCC(=O)O)c(C)cc1SCc1ccc(-c2ccc(C(F)(F)F)cc2)nc1 [Example 19, {5-Methoxy-2-methyl-4-[6-(4-trifluoromethyl-phenyl)-pyridin-3-ylmethylsulfanyl]-phenoxy}-acetic acid]	203 °C (dec.)	< 300 nM	< 300 nM
Cc1cc(SCc2ccc(-c3ccc(C(F)(F)F)cc3)cc2)c(Cl)cc1OCC(=O)O [Example 20, [5-Chloro-2-methyl-4-(4′-trifluoromethyl-biphenyl-4-ylmethylsulfanyl)-phenoxy]-acetic acid]	161 to 162 °C	< 300 nM	2000 to 5000 nM
Cc1cc(SCCc2ccc(-c3ccc(C(F)(F)F)cc3)cc2)ccc1OCC(=O)O [Example 22, {2-Methyl-4-[2-(4′-trifluoromethyl-biphenyl-4-yl)-ethylsulfanyl]-phenoxy}-acetic acid]	132 to 134 °C	1000 to 2000 nM	500 to 1000 nM
COc1cc(OCC(=O)O)c(C)cc1SCCc1ccc(-c2ccc(C(F)(F)F)cc2)cc1 [Example 23, {5-Methoxy-2-methyl-4-[2-(4′-trifluoromethyl-biphenyl-4-yl)-ethylsulfanyl]-phenoxy}-acetic acid]	169 to 171 °C	< 300 nM	< 300 nM
Cc1cc(CCc2ccc(-c3ccc(C(F)(F)F)cc3)cc2)ccc1OCC(=O)O [Example 25, {2-Methyl-4-[2-(4′-trifluoromethyl-biphenyl-4-yl)-ethyl]-phenoxy}-acetic acid]	174 to 176 °C	2000 to 5000 nM	1000 to 2000 nM
Cc1cc(SCc2ccc(-c3ccc(C(F)(F)F)cn3)cc2)c2c(c1OCC(=O)O)CCC2 [Example 27, {5-Methyl-7-[4-(5-trifluoromethyl-pyridin-2-yl)-benzylsulfanyl]-indan-4-yloxy}-acetic acid]	186 °C	2000 to 5000 nM	500 to 1000 nM
Cc1cc(SCc2ccc(-c3ccc(C(F)(F)F)cc3)cc2)c2c(c1OCC(=O)O)CCC2 [Example 28, [5-Methyl-7-(4′-trifluoromethyl-biphenyl-4-ylmethylsulfanyl)-indan-4-yloxy]-acetic acid]	177 °C	1000 to 2000 nM	1000 to 2000 nM
COc1cc(OCC(=O)O)c(C)cc1SCc1ccc(/C=C/c2cccc(F)c2)cc1 [Example 29, (4-{4-[2-(3-Fluoro-phenyl)-vinyl]-benzylsulfanyl}-5-methoxy-2-methyl-phenoxy)-acetic acid]	154 °C (dec.)	< 300 nM	< 300 nM
Cc1cc(SCc2ccc(OCc3ccc(F)cc3F)cc2)ccc1OCC(=O)O [Example 31, {4-[4-(2,4-Difluoro-benzyloxy)-benzylsulfanyl]-2-methyl-phenoxy}-acetic acid]	139 to 141 °C	> 5000 nM	1000 to 2000 nM
Cc1cc(SCc2ccc(OCc3ccc(Cl)cc3Cl)cc2)ccc1OCC(=O)O [Example 32, {4-[4-(2,4-Dichloro-benzyloxy)-benzylsulfanyl]-2-methyl-phenoxy}-acetic acid]	143 to 145 °C	300 to 500 nM	1000 to 2000 nM
COc1ccc(COc2ccc(CSc3ccc(OCC(=O)O)c(C)c3)cc2)cc1 [Example 33, {4-[4-(4-Methoxy-benzyloxy)-benzylsulfanyl]-2-methyl-phenoxy}-acetic acid]	150 to 152 °C	1000 to 2000 nM	1000 to 2000 nM
Cc1cc(SCc2ccc(OCc3ccc(C(C)(C)C)cc3)cc2)ccc1OCC(=O)O [Example 34, {4-[4-(4-tert-Butyl-benzyloxy)-benzylsulfanyl]-2-methyl-phenoxy}-acetic acid]	135 to 137 °C	< 300 nM	< 300 nM
Cc1cc(SCc2ccc(OCc3ccc(OC(F)(F)F)cc3)cc2)ccc1OCC(=O)O [Example 35, {2-Methyl-4-[4-(4-trifluoromethoxy-benzyloxy)-benzylsulfanyl]-phenoxy}-acetic acid]	141 to 142 °C	300 to 500 nM	< 300 nM
O=C(O)COc1ccc(SCc2cccc(-c3ccc(C(F)(F)F)cc3)c2)c2c1CCC2 [Example 48, [7-(4′-Trifluoromethyl-biphenyl-3-ylmethylsulfanyl)-indan-4-yloxy]-acetic acid]	–	< 300 nM	2000 to 5000 nM
COc1cc(OCC(=O)O)c(C)cc1SCc1cccc(-c2ccc(C(F)(F)F)cc2)c1 [Example 49, [5-Methoxy-2-methyl-4-(4′-trifluoromethyl-biphenyl-3-ylmethylsulfanyl)-phenoxy]-acetic acid]	–	< 300 nM	300 to 500 nM
CCCc1cc(SCc2ccc(-c3ccc(C(F)(F)F)cc3)cc2)ccc1OCC(=O)O [Example 52, [2-Propyl-4-(4′-trifluoromethyl-biphenyl-4-ylmethylsulfanyl)-phenoxy]-acetic acid]	–	< 300 nM	500 to 1000 nM
O=C(O)COc1ccc(SCc2cccc(-c3ccc(C(F)(F)F)cn3)c2)c2c1CCC2 [Example 53, {7-[3-(5-Trifluoromethyl-pyridin-2-yl)-benzylsulfanyl]-indan-4-yloxy}-acetic acid]	–	< 300 nM	1000 to 2000 nM
O=C(O)COc1ccc(SCc2ccc(OCc3ccc(C(F)(F)F)cc3)cc2)c2c1CCC2 [Example 63, {7-[4-(4-Trifluoromethyl-benzyloxy)-benzylsulfanyl]-indan-4-yloxy}-acetic acid]	145 °C	–	2000 to 5000 nM
O=C(O)COc1ccc(SCc2cccc(OCc3ccc(C(F)(F)F)cc3)c2)c2c1CCCO2 [Example 84, {8-[3-(4-Trifluoromethyl-benzyloxy)-benzylsulfanyl]-chroman-5-yloxy}-acetic acid]	113 to 115 °C	–	> 5000 nM
